Here are results for two compounds from PMC2987581 (Tetrahedron letters, 2010).

The target in one assay is T1, trypsin (Bos taurus, UniProt P00760).
T1 sequence (P00760 24-246): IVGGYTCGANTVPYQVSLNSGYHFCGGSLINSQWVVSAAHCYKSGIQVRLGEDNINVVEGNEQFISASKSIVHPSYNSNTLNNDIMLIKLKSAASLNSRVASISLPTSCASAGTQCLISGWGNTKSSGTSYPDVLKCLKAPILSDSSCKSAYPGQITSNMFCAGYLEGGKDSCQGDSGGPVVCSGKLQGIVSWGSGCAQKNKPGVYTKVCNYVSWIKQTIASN
The experiment in a line: serine protease inhibition screen, trypsin. As to conditions: at 100 μM, the highest concentration tested. Type of assay: biochemical.

Another assay addresses aspartic protease BACE1 (Homo sapiens, UniProt P56817). In words: aspartic protease inhibition, BACE1. Type of assay: biochemical. As to conditions: at concentrations up to 30 μM.

Chain of aspartic protease BACE1 (P56817 46-501): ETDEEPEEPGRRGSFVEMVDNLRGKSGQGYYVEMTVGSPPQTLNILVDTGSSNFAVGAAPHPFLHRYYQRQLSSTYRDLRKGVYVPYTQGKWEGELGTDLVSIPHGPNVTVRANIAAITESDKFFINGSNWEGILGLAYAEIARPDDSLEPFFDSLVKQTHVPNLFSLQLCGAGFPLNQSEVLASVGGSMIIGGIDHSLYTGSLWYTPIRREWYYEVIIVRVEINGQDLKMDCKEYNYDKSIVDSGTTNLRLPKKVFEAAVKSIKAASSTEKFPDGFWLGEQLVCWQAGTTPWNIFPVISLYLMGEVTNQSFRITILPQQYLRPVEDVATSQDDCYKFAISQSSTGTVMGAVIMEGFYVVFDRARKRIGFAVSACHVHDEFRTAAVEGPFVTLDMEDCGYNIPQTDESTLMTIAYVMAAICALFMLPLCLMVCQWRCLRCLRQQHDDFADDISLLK

As to `C/C=C1\NC(=O)[C@@H](NC(=O)[C@@H](NC(=O)[C@H](C)NC(=O)CCC)C(C)C)[C@@H](C)OC(=O)[C@H](C(C)C)NC(=O)[C@H](Cc2ccc(O)cc2)N(C)C(=O)[C@H](Cc2ccccc2)N2C(=O)[C@H](CC[C@H]2O)NC1=O` [Compound 1, Bouillomide A], the inhibition of trypsin entry at trypsin is listed as “no inhibition”. For the same compound, the “inhibition of BACE1” value at aspartic protease BACE1 is reported as “does not inhibit”.
Turning to `C/C=C1\NC(=O)[C@@H](NC(=O)[C@@H](NC(=O)[C@H](C)NC(=O)CCC)C(C)C)[C@@H](C)OC(=O)[C@H](C(C)C)NC(=O)[C@H](Cc2ccc(O)c(Br)c2)N(C)C(=O)[C@H](Cc2ccccc2)N2C(=O)[C@H](CC[C@H]2O)NC1=O` [Compound 2, Bouillomide B], on trypsin, the inhibition of trypsin entry was “no inhibition”.
